According to US10376465B2, “Monovalent metal cation dry powders for inhalation” (priority 2010, dated 2019):
Like-named read-outs stand apart in the source and are kept apart here.

Assays:
[1] = Solubility of salts and drugs in water / ethanol; format: physicochemical
Excerpt: Spray drying homogenous particles requires that the ingredients of interest be solubilized in solution or suspended in a uniform and stable suspension. Most of the materials mentioned in the material section are sufficiently water-soluble to prepare suitable spray drying solutions. […] As a result of these low solubilities, formulation feedstock development work was necessary to prepare solutions or suspensions that could be spray dried.
For the spray drying process, the salts, excipients and other drugs were dissolved or suspended in a solvent (e.g., water). The solid concentrations (w/v) were chosen dependent on the solubility of the different components (see Table 2). The ratios used for formulations were based on the molecular weight of the anhydrous salts (see Table 3).

[2] = tested on: mice sensitized and challenged with ovalbumin (OVA); details: literature (Riesenfeld 2010); cited from earlier work

Row | solubility in ethanol [1] | solubility in water [1] | solubility in ethanol ([1]; in words) | solubility in water ([1]; in words) | Compound | eosinophilic cells and total cellularity in the mouse OVA model [2]
1 | slightly soluble | practically insoluble |  |  | CCCC1O[C@@H]2C[C@H]3[C@@H]4CCC5=CC(=O)C=C[C@]5(C)[C@H]4[C@@H](O)C[C@]3(C)[C@]2(C(=O)CO)O1 (stereo partly shown) [Budesonide, budesonide] | 
2 | slightly soluble | practically insoluble |  |  | CCC(=O)O[C@]1(C(=O)SCF)[C@H](C)C[C@H]2[C@@H]3C[C@H](F)C4=CC(=O)C=C[C@]4(C)[C@@]3(F)[C@@H](O)C[C@@]21C [Fluticasone propionate, fluticasone propionate] | reduce eosinophilic cells and total cellularity
3 |  |  | slightly soluble | practically insoluble | OCc1cc(C(O)CNCCCCCCOCCCCc2ccccc2)ccc1O (stereo not shown) [salmeterol xinafoate] | 
